Reference: PubChem BioAssay AID2060500 (Molecular Pharmacology Branch, DTP, NCI, 2025)

System: 596521-263-R-J1-PDC complex spheroids, viability % of control
Assay: Anticancer human tumor 596521-263-R-J1-PDC patient-derived soft tissue sarcoma cell line growth inhibition [GQUAD]
Conditions: for IC50: curve of first compound; for viability, T/C: stronger effect = lower value
Summary of the method: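 Multi-cell-type spheroids of tumor cells with HUVEC and mesenchymal stem cells, treated with drug combinations. Concentrations descend in half-log steps from near clinical Cmax, or from 10 microM where Cmax is unknown; viability read-out.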

[1] = second compound 0.0316 µM, first compound 0.0316 µM
[2] = second compound 0.0316 µM, first compound 0.1 µM
[3] = second compound 0.0316 µM, first compound 0.316 µM
[4] = second compound 0.0316 µM, first compound 1 µM
[5] = second compound 0.0316 µM, first compound 3.16 µM
[6] = second compound 0.0316 µM, first compound 10 µM
[7] = second compound 0.1 µM, first compound 0.0316 µM
[8] = second compound 0.1 µM, first compound 0.1 µM
[9] = second compound 0.1 µM, first compound 0.316 µM
[10] = second compound 0.1 µM, first compound 1 µM
[11] = second compound 0.1 µM, first compound 3.16 µM
[12] = second compound 0.1 µM, first compound 10 µM
[13] = second compound 0.316 µM, first compound 0.0316 µM
[14] = second compound 0.316 µM, first compound 0.1 µM
[15] = second compound 0.316 µM, first compound 0.316 µM
[16] = second compound 0.316 µM, first compound 1 µM
[17] = second compound 0.316 µM, first compound 3.16 µM
[18] = second compound 0.316 µM, first compound 10 µM
[19] = second compound 1 µM, first compound 0.0316 µM
[20] = second compound 1 µM, first compound 0.1 µM
[21] = second compound 1 µM, first compound 0.316 µM
[22] = second compound 1 µM, first compound 1 µM
[23] = second compound 1 µM, first compound 3.16 µM
[24] = second compound 1 µM, first compound 10 µM
[25] = second compound 3.16 µM, first compound 0.0316 µM
[26] = second compound 3.16 µM, first compound 0.1 µM
[27] = second compound 3.16 µM, first compound 0.316 µM
[28] = second compound 3.16 µM, first compound 1 µM
[29] = second compound 3.16 µM, first compound 3.16 µM
[30] = second compound 3.16 µM, first compound 10 µM
[31] = second compound 10 µM, first compound 0.0316 µM
[32] = second compound 10 µM, first compound 0.1 µM
[33] = second compound 10 µM, first compound 0.316 µM
[34] = second compound 10 µM, first compound 1 µM
[35] = second compound 10 µM, first compound 3.16 µM
[36] = second compound 10 µM, first compound 10 µM
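Further: spheroids exposed to drugs for 7 days before viability reading.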
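Wherever viability, T/C is given: 100% = DMSO vehicle control viability.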

`CC1COCCN1c1cc(-c2ccnn2C)c2ccnc(-c3ccn[nH]3)c2n1` (stereo not drawn) + Cc1cnc(CNC(=O)c2c(=O)c3ccc(N4CCCN(C)CC4)nc3n3c2sc2ccccc23)cn1 showed an IC50 (second compound 0.0316 µM) of 333 nM, an IC50 (second compound 0.1 µM) of 367 nM and an IC50 (second compound 0.316 µM) of 191 nM. For the same compound, the IC50 (second compound 1 µM) was 62.4 nM, the IC50 (second compound 3.16 µM) was 90.9 nM and the IC50 (second compound 10 µM) was under 31.6 nM. It also gave a viability, T/C [1] of 55.9%, a viability, T/C [2] of 55.6% and a viability, T/C [3] of 48.3%. For the same compound, the viability, T/C [4] was 42.5%, the viability, T/C [5] was 27.4% and the viability, T/C [6] was 23.2%. For the same compound, the viability, T/C [7] was 53.1%, the viability, T/C [8] was 65.6% and the viability, T/C [9] was 47%. The viability, T/C [10] was 41.8%, the viability, T/C [11] was 29.7% and the viability, T/C [12] was 28.1%. The viability, T/C [13] was 57.4%, the viability, T/C [14] was 51.3% and the viability, T/C [15] was 49%. The viability, T/C [16] was 41.2%, the viability, T/C [17] was 33% and the viability, T/C [18] was 25.1%. The viability, T/C [19] was 52.2%, the viability, T/C [20] was 47.8% and the viability, T/C [21] was 42.9%. The viability, T/C [22] was 34%, the viability, T/C [23] was 26.8% and the viability, T/C [24] was 26.6%. For the same compound, the viability, T/C [25] was 49.8%, the viability, T/C [26] was 52.3% and the viability, T/C [27] was 45.3%. For the same compound, the viability, T/C [28] was 38%, the viability, T/C [29] was 29.4% and the viability, T/C [30] was 21.2%. The viability, T/C [31] was 39.7%, the viability, T/C [32] was 35% and the viability, T/C [33] was 33.3%. The viability, T/C [34] was 30.4%, the viability, T/C [35] was 25% and the viability, T/C [36] was 14.1%.
Work on `CC1COCCN1c1cc(C2(S(C)(=N)=O)CC2)nc(-c2ccnc3[nH]ccc23)n1` (stereo not drawn) + Cc1cnc(CNC(=O)c2c(=O)c3ccc(N4CCCN(C)CC4)nc3n3c2sc2ccccc23)cn1 yielded an IC50 (second compound 0.0316 µM) of 8980 nM, an IC50 (second compound 0.1 µM) of 6390 nM and an IC50 (second compound 0.316 µM) of over 10000 nM. The IC50 (second compound 1 µM) was 6210 nM, the IC50 (second compound 3.16 µM) was 103 nM and the IC50 (second compound 10 µM) was under 31.6 nM. The viability, T/C [1] was 91.2%, the viability, T/C [2] was 101% and the viability, T/C [3] was 86.4%. The viability, T/C [4] was 87.3%, the viability, T/C [5] was 67.1% and the viability, T/C [6] was 48.3%. The viability, T/C [7] was 84%, the viability, T/C [8] was 93.5% and the viability, T/C [9] was 76.1%. It also gave a viability, T/C [10] of 72.5%, a viability, T/C [11] of 59.4% and a viability, T/C [12] of 44.2%. It also gave a viability, T/C [13] of 83%, a viability, T/C [14] of 75.5% and a viability, T/C [15] of 66.7%. The viability, T/C [16] was 72.1%, the viability, T/C [17] was 55.6% and the viability, T/C [18] was 51.8%. For the same compound, the viability, T/C [19] was 58%, the viability, T/C [20] was 64.6% and the viability, T/C [21] was 66.7%. It also gave a viability, T/C [22] of 56.8%, a viability, T/C [23] of 53% and a viability, T/C [24] of 47.4%. It also gave a viability, T/C [25] of 57%, a viability, T/C [26] of 50.5% and a viability, T/C [27] of 48.1%. The viability, T/C [28] was 45.1%, the viability, T/C [29] was 51.9% and the viability, T/C [30] was 47%. It also gave a viability, T/C [31] of 46.6%, a viability, T/C [32] of 41.9% and a viability, T/C [33] of 49.3%. The viability, T/C [34] was 39.4%, the viability, T/C [35] was 40.3% and the viability, T/C [36] was 37.6%.
For `COc1ccc([C@@H](O)c2cc(-c3ncnc4cc(N5CCOCC5)ccc34)c(F)cc2Cl)nn1` + Cc1cnc(CNC(=O)c2c(=O)c3ccc(N4CCCN(C)CC4)nc3n3c2sc2ccccc23)cn1, the IC50 (second compound 0.0316 µM) was 8520 nM, the IC50 (second compound 0.1 µM) was 1510 nM and the IC50 (second compound 0.316 µM) was 1690 nM. For the same compound, the IC50 (second compound 1 µM) was 635 nM, the IC50 (second compound 3.16 µM) was 294 nM and the IC50 (second compound 10 µM) was under 31.6 nM. For the same compound, the viability, T/C [1] was 99.7%, the viability, T/C [2] was 80.7% and the viability, T/C [3] was 79.4%. It also gave a viability, T/C [4] of 77.2%, a viability, T/C [5] of 49.2% and a viability, T/C [6] of 51.3%. For the same compound, the viability, T/C [7] was 92.3%, the viability, T/C [8] was 88.4% and the viability, T/C [9] was 67.5%. It also gave a viability, T/C [10] of 50.5%, a viability, T/C [11] of 54.6% and a viability, T/C [12] of 38.7%. It also gave a viability, T/C [13] of 84%, a viability, T/C [14] of 77.6% and a viability, T/C [15] of 63.6%. It also gave a viability, T/C [16] of 57.1%, a viability, T/C [17] of 42.9% and a viability, T/C [18] of 37.4%. It also gave a viability, T/C [19] of 64.5%, a viability, T/C [20] of 58.2% and a viability, T/C [21] of 58.9%. It also gave a viability, T/C [22] of 42.5%, a viability, T/C [23] of 43% and a viability, T/C [24] of 37.6%. It also gave a viability, T/C [25] of 55.7%, a viability, T/C [26] of 59.6% and a viability, T/C [27] of 45.2%. It also gave a viability, T/C [28] of 45.9%, a viability, T/C [29] of 40.3% and a viability, T/C [30] of 35.4%. The viability, T/C [31] was 45.4%, the viability, T/C [32] was 27.4% and the viability, T/C [33] was 42%. It also gave a viability, T/C [34] of 38.3%, a viability, T/C [35] of 36.3% and a viability, T/C [36] of 11%.
`O=C(c1cc(Cc2n[nH]c(=O)c3ccccc23)ccc1F)N1CCN(C(=O)C2CC2)CC1` + Cc1cnc(CNC(=O)c2c(=O)c3ccc(N4CCCN(C)CC4)nc3n3c2sc2ccccc23)cn1 gave an IC50 (second compound 0.0316 µM) of over 10000 nM, an IC50 (second compound 0.1 µM) of over 10000 nM and an IC50 (second compound 0.316 µM) of over 10000 nM. For the same compound, the IC50 (second compound 1 µM) was over 10000 nM, the IC50 (second compound 3.16 µM) was under 31.6 nM and the IC50 (second compound 10 µM) was under 31.6 nM. For the same compound, the viability, T/C [1] was 92%, the viability, T/C [2] was 91% and the viability, T/C [3] was 96%. It also gave a viability, T/C [4] of 80.2%, a viability, T/C [5] of 81.4% and a viability, T/C [6] of 68.9%. The viability, T/C [7] was 86.3%, the viability, T/C [8] was 80.6% and the viability, T/C [9] was 82.8%. The viability, T/C [10] was 70.3%, the viability, T/C [11] was 71.4% and the viability, T/C [12] was 56.4%. The viability, T/C [13] was 71.8%, the viability, T/C [14] was 77.9% and the viability, T/C [15] was 73.4%. For the same compound, the viability, T/C [16] was 78.1%, the viability, T/C [17] was 73.3% and the viability, T/C [18] was 58.1%. It also gave a viability, T/C [19] of 68.2%, a viability, T/C [20] of 64.2% and a viability, T/C [21] of 59.4%. For the same compound, the viability, T/C [22] was 64.3%, the viability, T/C [23] was 60.9% and the viability, T/C [24] was 54.1%. It also gave a viability, T/C [25] of 47.9%, a viability, T/C [26] of 50.1% and a viability, T/C [27] of 52.2%. It also gave a viability, T/C [28] of 56.8%, a viability, T/C [29] of 52.3% and a viability, T/C [30] of 48.8%. For the same compound, the viability, T/C [31] was 46.1%, the viability, T/C [32] was 48.4% and the viability, T/C [33] was 47.4%. For the same compound, the viability, T/C [34] was 46.6%, the viability, T/C [35] was 50.9% and the viability, T/C [36] was 41.8%.
